Patent US20140058103A1, “Inhibitors of PI3K-Delta and Methods of Their Use and Manufacture” (Exelixis, Inc., priority 2010, published 2014)

The compounds below were run against PI3K delta (Homo sapiens, UniProt O00329) (assay: Luciferase-coupled chemiluminescence kinase assay (ATP consumption, KinaseGlo)).
Sequence of PI3K delta (O00329 whole entry): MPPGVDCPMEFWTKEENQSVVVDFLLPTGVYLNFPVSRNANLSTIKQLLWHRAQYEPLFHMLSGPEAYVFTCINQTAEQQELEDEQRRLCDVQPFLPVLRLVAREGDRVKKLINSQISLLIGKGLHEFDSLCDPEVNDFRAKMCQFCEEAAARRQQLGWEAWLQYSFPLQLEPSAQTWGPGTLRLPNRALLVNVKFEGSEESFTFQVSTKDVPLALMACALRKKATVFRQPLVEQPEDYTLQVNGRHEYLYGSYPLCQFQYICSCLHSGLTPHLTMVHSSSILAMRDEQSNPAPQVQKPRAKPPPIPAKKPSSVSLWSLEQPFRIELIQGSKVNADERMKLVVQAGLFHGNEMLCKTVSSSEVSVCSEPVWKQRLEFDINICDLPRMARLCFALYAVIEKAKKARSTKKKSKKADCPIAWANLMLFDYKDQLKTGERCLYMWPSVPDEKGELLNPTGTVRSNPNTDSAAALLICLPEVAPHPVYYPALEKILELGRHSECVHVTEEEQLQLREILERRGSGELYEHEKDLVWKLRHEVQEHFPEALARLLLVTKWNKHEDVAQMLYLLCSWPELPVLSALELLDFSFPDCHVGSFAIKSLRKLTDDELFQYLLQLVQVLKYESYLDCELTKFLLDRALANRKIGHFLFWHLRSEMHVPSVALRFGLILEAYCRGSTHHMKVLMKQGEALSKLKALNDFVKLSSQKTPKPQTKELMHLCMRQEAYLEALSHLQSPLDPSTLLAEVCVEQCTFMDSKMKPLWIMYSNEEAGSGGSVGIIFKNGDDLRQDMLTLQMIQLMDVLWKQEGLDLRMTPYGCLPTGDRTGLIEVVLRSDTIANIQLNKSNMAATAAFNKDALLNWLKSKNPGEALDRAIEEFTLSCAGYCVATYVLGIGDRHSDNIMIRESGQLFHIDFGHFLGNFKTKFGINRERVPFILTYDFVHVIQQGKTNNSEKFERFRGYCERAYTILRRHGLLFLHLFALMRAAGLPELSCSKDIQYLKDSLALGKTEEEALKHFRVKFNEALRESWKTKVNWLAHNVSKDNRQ
Sequence of PI3K delta (P27986 whole entry partner): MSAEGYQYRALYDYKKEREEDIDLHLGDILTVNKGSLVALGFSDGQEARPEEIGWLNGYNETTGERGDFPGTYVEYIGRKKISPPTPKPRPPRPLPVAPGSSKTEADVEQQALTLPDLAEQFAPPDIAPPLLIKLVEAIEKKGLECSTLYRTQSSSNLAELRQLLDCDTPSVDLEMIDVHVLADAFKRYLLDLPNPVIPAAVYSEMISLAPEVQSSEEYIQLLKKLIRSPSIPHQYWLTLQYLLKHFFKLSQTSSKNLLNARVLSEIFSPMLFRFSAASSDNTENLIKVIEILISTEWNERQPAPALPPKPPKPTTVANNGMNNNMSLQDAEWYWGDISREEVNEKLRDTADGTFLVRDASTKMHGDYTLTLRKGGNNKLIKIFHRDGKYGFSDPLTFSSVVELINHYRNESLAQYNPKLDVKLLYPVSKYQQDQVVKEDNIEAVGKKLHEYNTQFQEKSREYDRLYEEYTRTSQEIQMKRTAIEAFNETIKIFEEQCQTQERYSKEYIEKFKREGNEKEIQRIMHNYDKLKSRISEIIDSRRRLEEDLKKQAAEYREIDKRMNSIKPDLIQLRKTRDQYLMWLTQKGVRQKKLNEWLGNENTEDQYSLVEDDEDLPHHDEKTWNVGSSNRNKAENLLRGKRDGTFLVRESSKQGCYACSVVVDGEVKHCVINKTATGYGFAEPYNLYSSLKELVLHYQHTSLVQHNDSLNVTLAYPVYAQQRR
Assay type: biochemical
Description: Kinase activity and compound inhibition were investigated using one or more of the assay formats described below. The ATP concentrations used in the various assays were approximately equal to or less than the KM for each of the respective kinases. Dose-response experiments were performed using an intra-plate dilution scheme with 10 different inhibitor concentrations in a 384-well microtiter plate. IC50 values were calculated by nonlinear regression analysis using the four-parameter equation listed below:
Y=min+(max−min)/(1+(X/IC50)^N) Equation 1
Typically N should approximate unity. Curve fitting was performed using XLFit or ActivityBase.
Kinase activity is measured as the percent of ATP consumed following the kinase reaction using luciferase-luciferin-coupled chemiluminescence. […] Kinase reactions were initiated by combining test compounds, kinase, and ATP in a 20 μL volume (6 μL volume for 1536-well plate). The reaction mixture was incubated at ambient temperature for 2 h. Following the kinase reaction, a 20 μL (or […] for 1536-well plate) aliquot of KinaseGlo (Promega) was added and the chemiluminescence signal measured using an EnVision plate reader (Perkin Elmer).
Compound `Cn1c(C(=O)NCc2ccncc2)nc2c(N3CCC4(CC3)C(=O)Nc3ccccc34)ncnc21` [Compound 22, 9-methyl-6-(2-oxo-1,2-dihydro-1′H-spiro[indole-3,4′-piperidin]-1′-yl)-N-(pyridin-4-ylmethyl)-9H-purine-8-carboxamide] has an IC50 of 50 to 250 nM.
For `Cn1cc(-c2nc3c(N4CCN(S(=O)(=O)c5ccccc5Cl)CC4)ncnc3n2C)cn1` [Compound 375, 6-{4-[(2-chlorophenyl)sulfonyl]piperazin-1-yl}-9-methyl-8-(1-methyl-1H-pyrazol-4-yl)-9H-purine], the IC50 was 250 to 500 nM.
`Cn1c(C(=O)NC2CCC2)nc2c(N3CCC(n4c(=O)[nH]c5ccccc54)CC3)ncnc21` [Compound 44, N-cyclobutyl-9-methyl-6-[4-(2-oxo-2,3-dihydro-1H-benzimidazol-1-yl)piperidin-1-yl]-9H-purine-8-carboxamide] was tested, and the IC50 was 50 to 250 nM.
With `CCNC(=O)c1nc2c(N3CCC4(CC3)C(=O)Nc3ccccc34)ncnc2n1CC` [Compound 219, N,9-diethyl-6-(2-oxo-1,2-dihydro-1′H-spiro[indole-3,4′-piperidin]-1′-yl)-9H-purine-8-carboxamide] the IC50 was < 50 nM.
`CNC(=O)c1nc2c(N3CCC(n4c(=O)[nH]c5ccccc54)CC3)ncnc2n1C` [Compound 91, N,9-dimethyl-6-[4-(2-oxo-2,3-dihydro-1H-benzimidazol-1-yl)piperidin-1-yl]-9H-purine-8-carboxamide] gave an IC50 of 500 to 1500 nM.
In the case of `CCn1c(C(=O)NCC(F)(F)F)nc2c(N3CCC(n4c(=O)[nH]c5ncccc54)CC3)ncnc21` [Compound 318, 9-ethyl-6-[4-(2-oxo-2,3-dihydro-1H-imidazo[4,5-b]pyridin-1-yl)piperidin-1-yl]-N-(2,2,2-trifluoroethyl)-9H-purine-8-carboxamide], the IC50 is reported as < 50 nM.
`COc1ccc(Cl)cc1S(=O)(=O)N1CCN(c2ncnc3c2nc(-c2cnn(C)c2)n3C)CC1` [Compound 388, 6-(4-{[5-chloro-2-(methyloxy)phenyl]sulfonyl}-piperazin-1-yl)-9-methyl-8-(1-methyl-1H-pyrazol-4-yl)-9H-purine] gave an IC50 of 50 to 250 nM.
With `Cn1c(C(=O)NCCc2ccccc2)nc2c(N3CCC4(CC3)C(=O)Nc3ccccc34)ncnc21` [Compound 395, 9-methyl-6-(2-oxo-1,2-dihydro-1′H-spiro[indole-3,4′-piperidin]-1′-yl)-N-(2-phenylethyl)-9H-purine-8-carboxamide] the IC50 was 500 to 1500 nM.
With `CCn1c(C(=O)NC(C)C2CC2)nc2c(N3CCC4(CC3)C(=O)Nc3ccccc34)ncnc21` (stereo not drawn) [Compound 214, N-(1-cyclopropylethyl)-9-ethyl-6-(2-oxo-1,2-dihydro-1′H-spiro[indole-3,4′-piperidin]-1′-yl)-9H-purine-8-carboxamide] the IC50 was < 50 nM.
`Cn1c(C(=O)N2CCCCC2)nc2c(N3CCC4(CC3)C(=O)NCN4c3ccccc3)ncnc21` [Compound 9, 8-[9-methyl-8-(piperidin-1-ylcarbonyl)-9H-purin-6-yl]-1-phenyl-1,3,8-triazaspiro[4.5]decan-4-one] was tested, and the IC50 was 50 to 250 nM.
With `CC(CNC(=O)c1nc2c(N3CCC4(CC3)C(=O)Nc3ccccc34)ncnc2n1C)c1ccccc1` (stereo not drawn) [Compound 31, 9-methyl-6-(2-oxo-1,2-dihydro-1′H-spiro[indole-3,4′-piperidin]-1′-yl)-N-(2-phenylpropyl)-9H-purine-8-carboxamide] the IC50 was 500 to 1500 nM.
For `Cn1cc(-c2nc3c(N4CCN(C5=NS(=O)(=O)c6ccccc65)CC4)ncnc3n2C)cn1` [Compound 348, 6-[4-(1,1-dioxido-1,2-benzisothiazol-3-yl)piperazin-1-yl]-9-methyl-8-(1-methyl-1H-pyrazol-4-yl)-9H-purine], the IC50 was 50 to 250 nM.
In the case of `Cn1c(-c2cn[nH]c2C2CC2)nc2c(N3CCC(n4c(=O)[nH]c5ccccc54)CC3)ncnc21` [Compound 287, 1-{1-[8-(5-cyclopropyl-1H-pyrazol-4-yl)-9-methyl-9H-purin-6-yl]piperidin-4-yl}-1,3-dihydro-2H-benzimidazol-2-one], the IC50 is reported as < 50 nM.
With `CCn1c(-c2nnc(C(C)C)o2)nc2c(N3CCC4(CC3)C(=O)Nc3ccccc34)ncnc21` [Compound 209, 1′-{9-ethyl-8-[5-(1-methylethyl)-1,3,4-oxadiazol-2-yl]-9H-purin-6-yl}spiro[indole-3,4′-piperidin]-2(1H)-one] the IC50 was < 50 nM.
In the case of `COc1ccc(OC)c(S(=O)(=O)N2CCN(c3ncnc4c3nc(-c3cnn(C)c3)n4C)CC2)c1` [Compound 376, 6-(4-([2,5-bis(methyloxy)phenyl]sulfonyl}-piperazin-1-yl)-9-methyl-8-(1-methyl-1H-pyrazol-4-yl)-9H-purine], the IC50 is reported as 250 to 500 nM.
In the case of `Cn1c(C(=O)NCc2cccs2)nc2c(N3CCC(n4c(=O)[nH]c5ccccc54)CC3)ncnc21` [Compound 49, 9-methyl-6-[4-(2-oxo-2,3-dihydro-1H-benzimidazol-1-yl)piperidin-1-yl]-N-(2-thienylmethyl)-9H-purine-8-carboxamide], the IC50 is reported as 50 to 250 nM.
`Cn1c(-c2cn[nH]c2C(F)(F)F)nc2c(N3CCC(n4c(=O)[nH]c5ccccc54)CC3)ncnc21` [Compound 262, 1-(1-{9-methyl-8-[5-(trifluoromethyl)-1H-pyrazol-4-yl]-9H-purin-6-yl}piperidin-4-yl)-1,3-dihydro-2H-benzimidazol-2-one] gave an IC50 of 50 to 250 nM.
For `Cn1cc(-c2nc3c(N4CCN(S(=O)(=O)c5cccnc5Cl)CC4)ncnc3n2C)cn1` [Compound 390, 6-{4-[(2-chloropyridin-3-yl)sulfonyl]piperazin-1-yl}-9-methyl-8-(1-methyl-1H-pyrazol-4-yl)-9H-purine], the IC50 was 500 to 1500 nM.
`CCCCNC(=O)c1nc2c(N3CCC(n4c(=O)[nH]c5ccccc54)CC3)ncnc2n1C` [Compound 45, N-butyl-9-methyl-6-[4-(2-oxo-2,3-dihydro-1H-benzimidazol-1-yl)piperidin-1-yl]-9H-purine-8-carboxamide] was tested, and the IC50 was < 50 nM.
For `Cn1c(C(=O)NCC(C)(C)O)nc2c(N3CCC(n4c(=O)[nH]c5ccccc54)CC3)ncnc21` [Compound 273, N-(2-hydroxy-2-methylpropyl)-9-methyl-6-[4-(2-oxo-2,3-dihydro-1H-benzimidazol-1-yl)piperidin-1-yl]-9H-purine-8-carboxamide], the IC50 was < 50 nM.
`Cn1cc(-c2nc3c(N4CCN(S(=O)(=O)c5cccc(Cl)c5Cl)CC4)ncnc3n2C)cn1` [Compound 389, 6-{4-[(2,3-dichlorophenyl)sulfonyl]piperazin-1-yl}-9-methyl-8-(1-methyl-1H-pyrazol-4-yl)-9H-purine] was tested, and the IC50 was 250 to 500 nM.
`Cn1c(C(=O)N2CCC(O)C2)nc2c(N3CCC(n4c(=O)[nH]c5ccccc54)CC3)ncnc21` (stereo not drawn) [Compound 73, 1-(1-[8-[(3-hydroxypyrrolidin-1-yl)carbonyl]-9-methyl-9H-purin-6-yl]piperidin-4-yl)-1,3-dihydro-2H-benzimidazol-2-one] was tested, and the IC50 was 500 to 1500 nM.
For `CC(C)c1ccc2c(c1)C1(CCN(c3ncnc4c3nc(C(=O)NCC3CC3)n4C)CC1)C(=O)N2` [Compound 136, N-(cyclopropylmethyl)-9-methyl-6-[5-(1-methylethyl)-2-oxo-1,2-dihydro-1′H-spiro[indole-3,4′-piperidin]-1′-yl]-9H-purine-8-carboxamide], the IC50 was 500 to 1500 nM.
In the case of `CCCn1cc(-c2nc3c(N4CCC5(CC4)C(=O)Nc4ccccc45)ncnc3n2C)cn1` [Compound 234, 1′-[9-methyl-8-(1-propyl-1H-pyrazol-4-yl)-9H-purin-6-yl]spiro[indole-3,4′-piperidin]-2(1H)-one], the IC50 is reported as < 50 nM.
